Source: the supplement of paper PMC8882468

system: HCI-010 (organoid from a breast cancer xenograft); assay: CTG-3D luminescence at 96 h relative to day-0 seeding control (ratio to day 0); higher = more growth / less cytotoxicity; PDxO 3D drug screen, 96 h, CTG-3D normalised to day-0 seeding control.; conditions: 10 µM; days in culture: 65

SMILES	CTG-3D luminescence at 96 h
O=C(O)C1(C(=O)O)CCC1.[NH2-].[NH2-].[Pt+2] [carboplatin]	0.511
COc1cc2c(Oc3ccc4[nH]c(C)cc4c3F)ncnc2cc1OCCCN1CCCC1 [cediranib]	0.593
C[C@@H]1COCCN1c1cc(C2([S@](C)(=N)=O)CC2)nc(-c2cc[nH]c3nccc2-3)n1 [ceralasertib]	0.3
Cc1cc(Nc2ncc(Cl)c(Nc3ccccc3S(=O)(=O)C(C)C)n2)c(OC(C)C)cc1C1CCNCC1 [ceritinib]	0.00782
O=C(c1ccc(F)c(F)c1Nc1ccc(I)cc1F)N1CC(O)([C@@H]2CCCCN2)C1 [cobimetinib]	1.18
C[C@H](NC(=O)CCC(F)(F)F)C(=O)N[C@@H]1C(=O)N(CCO)c2ncccc2-c2ccccc21 [crenigacestat]	1.6
COc1cccc2c1C(=O)c1c(O)c3c(c(O)c1C2=O)C[C@@](O)(C(=O)CO)C[C@@H]3O[C@H]1C[C@H](N)[C@H](O)[C@H](C)O1 [doxorubicin]	0.288
C[C@]12CC[C@@H]3c4ccc(O)cc4C[C@@H](CCCCCCCCC[S+]([O-])CCCC(F)(F)C(F)(F)F)[C@H]3[C@@H]1CC[C@@H]2O (some centres not stated) [fulvestrant]	1.86
Nc1ccn([C@@H]2O[C@H](CO)[C@@H](O)C2(F)F)c(=O)n1 [gemcitabine]	0.0878

same assay, conditions: 10 µM; days in culture: 103

SMILES	CTG-3D luminescence at 96 h
O=C(O)C1(C(=O)O)CCC1.[NH2-].[NH2-].[Pt+2] [carboplatin]	0.639
COc1cc2c(Oc3ccc4[nH]c(C)cc4c3F)ncnc2cc1OCCCN1CCCC1 [cediranib]	0.461
C[C@@H]1COCCN1c1cc(C2([S@](C)(=N)=O)CC2)nc(-c2cc[nH]c3nccc2-3)n1 [ceralasertib]	0.548
Cc1cc(Nc2ncc(Cl)c(Nc3ccccc3S(=O)(=O)C(C)C)n2)c(OC(C)C)cc1C1CCNCC1 [ceritinib]	0.0149
O=C(c1ccc(F)c(F)c1Nc1ccc(I)cc1F)N1CC(O)([C@@H]2CCCCN2)C1 [cobimetinib]	1.92
C[C@H](NC(=O)CCC(F)(F)F)C(=O)N[C@@H]1C(=O)N(CCO)c2ncccc2-c2ccccc21 [crenigacestat]	2.87
COc1cccc2c1C(=O)c1c(O)c3c(c(O)c1C2=O)C[C@@](O)(C(=O)CO)C[C@@H]3O[C@H]1C[C@H](N)[C@H](O)[C@H](C)O1 [doxorubicin]	0.804
C[C@]12CC[C@@H]3c4ccc(O)cc4C[C@@H](CCCCCCCCC[S+]([O-])CCCC(F)(F)C(F)(F)F)[C@H]3[C@@H]1CC[C@@H]2O (some centres not stated) [fulvestrant]	3.15
Nc1ccn([C@@H]2O[C@H](CO)[C@@H](O)C2(F)F)c(=O)n1 [gemcitabine]	0.241

same assay, conditions: 100 µM; days in culture: 52

SMILES	CTG-3D luminescence at 96 h
O=C(O)C1(C(=O)O)CCC1.[NH2-].[NH2-].[Pt+2] [carboplatin]	0.0393
COc1cc2c(Oc3ccc4[nH]c(C)cc4c3F)ncnc2cc1OCCCN1CCCC1 [cediranib]	-0.0298
C[C@@H]1COCCN1c1cc(C2([S@](C)(=N)=O)CC2)nc(-c2cc[nH]c3nccc2-3)n1 [ceralasertib]	0.238
Cc1cc(Nc2ncc(Cl)c(Nc3ccccc3S(=O)(=O)C(C)C)n2)c(OC(C)C)cc1C1CCNCC1 [ceritinib]	-0.0342
O=C(c1ccc(F)c(F)c1Nc1ccc(I)cc1F)N1CC(O)([C@@H]2CCCCN2)C1 [cobimetinib]	0.00712
C[C@H](NC(=O)CCC(F)(F)F)C(=O)N[C@@H]1C(=O)N(CCO)c2ncccc2-c2ccccc21 [crenigacestat]	2.04
COc1cccc2c1C(=O)c1c(O)c3c(c(O)c1C2=O)C[C@@](O)(C(=O)CO)C[C@@H]3O[C@H]1C[C@H](N)[C@H](O)[C@H](C)O1 [doxorubicin]	0.0478
C[C@]12CC[C@@H]3c4ccc(O)cc4C[C@@H](CCCCCCCCC[S+]([O-])CCCC(F)(F)C(F)(F)F)[C@H]3[C@@H]1CC[C@@H]2O (some centres not stated) [fulvestrant]	1.97
Nc1ccn([C@@H]2O[C@H](CO)[C@@H](O)C2(F)F)c(=O)n1 [gemcitabine]	0.123

same assay, conditions: 100 µM; days in culture: 65

SMILES	CTG-3D luminescence at 96 h
O=C(O)C1(C(=O)O)CCC1.[NH2-].[NH2-].[Pt+2] [carboplatin]	0.0408
COc1cc2c(Oc3ccc4[nH]c(C)cc4c3F)ncnc2cc1OCCCN1CCCC1 [cediranib]	-0.00161
C[C@@H]1COCCN1c1cc(C2([S@](C)(=N)=O)CC2)nc(-c2cc[nH]c3nccc2-3)n1 [ceralasertib]	0.152
Cc1cc(Nc2ncc(Cl)c(Nc3ccccc3S(=O)(=O)C(C)C)n2)c(OC(C)C)cc1C1CCNCC1 [ceritinib]	-0.00536
O=C(c1ccc(F)c(F)c1Nc1ccc(I)cc1F)N1CC(O)([C@@H]2CCCCN2)C1 [cobimetinib]	0.00337
C[C@H](NC(=O)CCC(F)(F)F)C(=O)N[C@@H]1C(=O)N(CCO)c2ncccc2-c2ccccc21 [crenigacestat]	1.45
COc1cccc2c1C(=O)c1c(O)c3c(c(O)c1C2=O)C[C@@](O)(C(=O)CO)C[C@@H]3O[C@H]1C[C@H](N)[C@H](O)[C@H](C)O1 [doxorubicin]	-0.000428
C[C@]12CC[C@@H]3c4ccc(O)cc4C[C@@H](CCCCCCCCC[S+]([O-])CCCC(F)(F)C(F)(F)F)[C@H]3[C@@H]1CC[C@@H]2O (some centres not stated) [fulvestrant]	1.66
Nc1ccn([C@@H]2O[C@H](CO)[C@@H](O)C2(F)F)c(=O)n1 [gemcitabine]	0.0546

same assay, conditions: 100 µM; days in culture: 103

SMILES	CTG-3D luminescence at 96 h
O=C(O)C1(C(=O)O)CCC1.[NH2-].[NH2-].[Pt+2] [carboplatin]	0.13
COc1cc2c(Oc3ccc4[nH]c(C)cc4c3F)ncnc2cc1OCCCN1CCCC1 [cediranib]	-0.00732
C[C@@H]1COCCN1c1cc(C2([S@](C)(=N)=O)CC2)nc(-c2cc[nH]c3nccc2-3)n1 [ceralasertib]	0.325
Cc1cc(Nc2ncc(Cl)c(Nc3ccccc3S(=O)(=O)C(C)C)n2)c(OC(C)C)cc1C1CCNCC1 [ceritinib]	-0.0118
O=C(c1ccc(F)c(F)c1Nc1ccc(I)cc1F)N1CC(O)([C@@H]2CCCCN2)C1 [cobimetinib]	0.00125
C[C@H](NC(=O)CCC(F)(F)F)C(=O)N[C@@H]1C(=O)N(CCO)c2ncccc2-c2ccccc21 [crenigacestat]	2.58
COc1cccc2c1C(=O)c1c(O)c3c(c(O)c1C2=O)C[C@@](O)(C(=O)CO)C[C@@H]3O[C@H]1C[C@H](N)[C@H](O)[C@H](C)O1 [doxorubicin]	0.0524
C[C@]12CC[C@@H]3c4ccc(O)cc4C[C@@H](CCCCCCCCC[S+]([O-])CCCC(F)(F)C(F)(F)F)[C@H]3[C@@H]1CC[C@@H]2O (some centres not stated) [fulvestrant]	2.99
Nc1ccn([C@@H]2O[C@H](CO)[C@@H](O)C2(F)F)c(=O)n1 [gemcitabine]	0.123

same assay, conditions: 625 fM; days in culture: 52

SMILES	CTG-3D luminescence at 96 h
O=C(O)C1(C(=O)O)CCC1.[NH2-].[NH2-].[Pt+2] [carboplatin]	1.82
COc1cc2c(Oc3ccc4[nH]c(C)cc4c3F)ncnc2cc1OCCCN1CCCC1 [cediranib]	2.13
C[C@@H]1COCCN1c1cc(C2([S@](C)(=N)=O)CC2)nc(-c2cc[nH]c3nccc2-3)n1 [ceralasertib]	2.24
Cc1cc(Nc2ncc(Cl)c(Nc3ccccc3S(=O)(=O)C(C)C)n2)c(OC(C)C)cc1C1CCNCC1 [ceritinib]	2.26
O=C(c1ccc(F)c(F)c1Nc1ccc(I)cc1F)N1CC(O)([C@@H]2CCCCN2)C1 [cobimetinib]	2.57
C[C@H](NC(=O)CCC(F)(F)F)C(=O)N[C@@H]1C(=O)N(CCO)c2ncccc2-c2ccccc21 [crenigacestat]	2
COc1cccc2c1C(=O)c1c(O)c3c(c(O)c1C2=O)C[C@@](O)(C(=O)CO)C[C@@H]3O[C@H]1C[C@H](N)[C@H](O)[C@H](C)O1 [doxorubicin]	2.26
C[C@]12CC[C@@H]3c4ccc(O)cc4C[C@@H](CCCCCCCCC[S+]([O-])CCCC(F)(F)C(F)(F)F)[C@H]3[C@@H]1CC[C@@H]2O (some centres not stated) [fulvestrant]	2.06
Nc1ccn([C@@H]2O[C@H](CO)[C@@H](O)C2(F)F)c(=O)n1 [gemcitabine]	2.32

same assay, conditions: 625 fM; days in culture: 65

SMILES	CTG-3D luminescence at 96 h
O=C(O)C1(C(=O)O)CCC1.[NH2-].[NH2-].[Pt+2] [carboplatin]	1.74
COc1cc2c(Oc3ccc4[nH]c(C)cc4c3F)ncnc2cc1OCCCN1CCCC1 [cediranib]	1.63
C[C@@H]1COCCN1c1cc(C2([S@](C)(=N)=O)CC2)nc(-c2cc[nH]c3nccc2-3)n1 [ceralasertib]	1.65
Cc1cc(Nc2ncc(Cl)c(Nc3ccccc3S(=O)(=O)C(C)C)n2)c(OC(C)C)cc1C1CCNCC1 [ceritinib]	1.74
O=C(c1ccc(F)c(F)c1Nc1ccc(I)cc1F)N1CC(O)([C@@H]2CCCCN2)C1 [cobimetinib]	1.61
C[C@H](NC(=O)CCC(F)(F)F)C(=O)N[C@@H]1C(=O)N(CCO)c2ncccc2-c2ccccc21 [crenigacestat]	1.67
COc1cccc2c1C(=O)c1c(O)c3c(c(O)c1C2=O)C[C@@](O)(C(=O)CO)C[C@@H]3O[C@H]1C[C@H](N)[C@H](O)[C@H](C)O1 [doxorubicin]	1.65
C[C@]12CC[C@@H]3c4ccc(O)cc4C[C@@H](CCCCCCCCC[S+]([O-])CCCC(F)(F)C(F)(F)F)[C@H]3[C@@H]1CC[C@@H]2O (some centres not stated) [fulvestrant]	1.76
Nc1ccn([C@@H]2O[C@H](CO)[C@@H](O)C2(F)F)c(=O)n1 [gemcitabine]	1.68

same assay, conditions: 625 fM; days in culture: 103

SMILES	CTG-3D luminescence at 96 h
O=C(O)C1(C(=O)O)CCC1.[NH2-].[NH2-].[Pt+2] [carboplatin]	3.07
COc1cc2c(Oc3ccc4[nH]c(C)cc4c3F)ncnc2cc1OCCCN1CCCC1 [cediranib]	3.19
C[C@@H]1COCCN1c1cc(C2([S@](C)(=N)=O)CC2)nc(-c2cc[nH]c3nccc2-3)n1 [ceralasertib]	3.14
Cc1cc(Nc2ncc(Cl)c(Nc3ccccc3S(=O)(=O)C(C)C)n2)c(OC(C)C)cc1C1CCNCC1 [ceritinib]	3.09
O=C(c1ccc(F)c(F)c1Nc1ccc(I)cc1F)N1CC(O)([C@@H]2CCCCN2)C1 [cobimetinib]	3.51
C[C@H](NC(=O)CCC(F)(F)F)C(=O)N[C@@H]1C(=O)N(CCO)c2ncccc2-c2ccccc21 [crenigacestat]	2.85
COc1cccc2c1C(=O)c1c(O)c3c(c(O)c1C2=O)C[C@@](O)(C(=O)CO)C[C@@H]3O[C@H]1C[C@H](N)[C@H](O)[C@H](C)O1 [doxorubicin]	3.28
C[C@]12CC[C@@H]3c4ccc(O)cc4C[C@@H](CCCCCCCCC[S+]([O-])CCCC(F)(F)C(F)(F)F)[C@H]3[C@@H]1CC[C@@H]2O (some centres not stated) [fulvestrant]	3.29
Nc1ccn([C@@H]2O[C@H](CO)[C@@H](O)C2(F)F)c(=O)n1 [gemcitabine]	3.42
